Experimental data published in US20060100226A1, “2-Thiopyrimidinones as therapeutic agents” (priority 2004, published 2006).

Columns and labels:
murine MEKK2 (mMEKK2) [1] = target: T1, murine MEKK2 (mMEKK2) (Mus musculus, UniProt Q61083); assay: TR-FRET kinase assay (mMEKK2/MBP); type: biochemical; settings: substrate biotin MBP, 60 minutes at room temperature
T1 sequence (Q61083 1-619): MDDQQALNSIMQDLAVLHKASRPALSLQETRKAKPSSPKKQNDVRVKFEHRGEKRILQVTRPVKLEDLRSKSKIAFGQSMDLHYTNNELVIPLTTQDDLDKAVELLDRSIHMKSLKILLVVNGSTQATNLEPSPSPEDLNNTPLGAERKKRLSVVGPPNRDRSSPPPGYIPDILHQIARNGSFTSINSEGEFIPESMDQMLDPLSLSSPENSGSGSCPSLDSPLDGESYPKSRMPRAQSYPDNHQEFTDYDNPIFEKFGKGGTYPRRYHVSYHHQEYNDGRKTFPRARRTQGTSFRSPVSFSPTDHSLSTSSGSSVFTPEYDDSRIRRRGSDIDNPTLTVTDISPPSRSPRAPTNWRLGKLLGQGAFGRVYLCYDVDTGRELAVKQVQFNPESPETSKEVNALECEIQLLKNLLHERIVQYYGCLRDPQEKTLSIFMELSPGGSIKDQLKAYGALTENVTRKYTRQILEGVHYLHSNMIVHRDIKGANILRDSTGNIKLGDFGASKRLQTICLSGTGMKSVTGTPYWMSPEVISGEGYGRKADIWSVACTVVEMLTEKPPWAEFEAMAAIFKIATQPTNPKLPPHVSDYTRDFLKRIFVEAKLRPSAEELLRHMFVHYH
How it was run: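 mMEKK2 was preincubated 10 min with compound in pH 7.5 Hepes/MgCl2/DTT/vanadate buffer, then biotin-MBP, anti-phospho-MBP antibody and ATP (5 uM solution added) were added and the reaction ran 60 min at room temperature. After EDTA stop, europium anti-mouse IgG and Cy5-streptavidin were added and TR-FRET was read at 615/665 nm.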

murine MEKK2 (mMEKK2) [2] = target: T1, murine MEKK2 (mMEKK2); assay: MEKK2 PhosphoELISA (mMEKK2/MKK4); type: biochemical; settings: substrate MKK4/SKK1 (unactive), ATP final 10 μM, O.D. 450 nm
From the text: Another useful method for assessing protein kinase inhibition, and specifically MEKK2 inhibition, of compounds of the invention involves the MEKK2 phospho-antibody enzyme-linked immunosorbent assay (PhosphoELISA). This screening panel, which involves relatively few steps, is a useful indicator of potential inhibitors of MEKK2. Reactions to murine MEKK2 are observed as optical density measurements at an absorbance of 450 nm. Inhibitory activities can be expressed in terms of IC50, where IC50 is the molar concentration of compound required to inhibit protein kinase binding by 50%.
A phospho-antibody enzyme-linked immunosorbent assay (PhosphoELISA) was used to screen potential inhibitors of MEKK2. The assay was performed as follows: Compounds to be tested were weighed and solubilized in DMSO (Sigma) to a stock concentration of 10 mM. Serial dilutions starting from 1 mM were prepared with additional DMSO. These dilutions were further diluted to 250 μM in kinase reaction buffer [20 mM Hepes pH 7.5, 5 mM MgCl2, 1 mM DTT (Dithiothreitol-Sigma), 1 mM NaVO4 (sodium vanadate- Sigma). A 25 μl aliquot of this solution was transferred to a glutathione coated 96-well microplate (Pierce). A stock aliquot containing 50-125 ng of murine MEKK2 (mMEKK2) was added to each well and incubated on the microplate for 10 minutes at room temperature. A 25 μl solution of MKK4/SKK1 (unactive) was diluted 1:200 in kinase assay buffer and added to the reaction plate followed by 50 μl of 25 μM ATP (adenosine triphosphate) to afford a final well concentration of 10 μM. The reaction was allowed to proceed for 60 minutes at room temperature before washing 3 times with wash buffer [100 mM phosphate pH 7.5, 0.05% TWEEN 20 (Sigma)]. A solution of anti-phospho MKK4/SEK1 antibody (Calbiochem) and biotin anti rabbit IgG (Jackson Immunoresearch) was diluted 1:2500 in kinase reaction buffer and added to the appropriate wells. The reaction was incubated for 60 minutes at room temperature. The microplate was washed 3 times with wash buffer and 100 ul of streptavidin horseradish peroxidase (HRP-Pierce) was added and incubated for 30 minutes at room temperature. The microplate was washed 3 times with wash buffer and 100 μl of TMB (3,3′,5,5′-tetramethylbenzidine-Sigma) was added. The assay was allowed to develop for 15-20 minutes then the reaction was stopped with the addition of 100 μl of 0.2 N sulfuric acid. The optical density (O.D.) of the plate was read on the Victor™ plate reader using the absorbance at 450 nm.

SMILES	IC50 (murine MEKK2 (mMEKK2) [1]) [µM]	IC50 (murine MEKK2 (mMEKK2) [2]) [µM]
COc1cccc(-c2nc(SCc3cccc(NCc4ccc(Cl)c(Cl)c4)c3)[nH]c(=O)c2C#N)c1 [Example 1a, 2-[3-(3,4-Dichloro-benzylamino)-benzylsulfanyl]-4-(3-methoxy-phenyl)-6-oxo-1,6-dihydro-pyrimidine-5-carbonitrile]	< 1	< 1
COc1ccc(-c2nc(SCc3cccc(NCc4ccc(Cl)c(Cl)c4)c3)[nH]c(=O)c2C#N)cc1OC [Example 1b, 2-[3-(3,4-Dichloro-benzylamino)-benzylsulfanyl]-4-(3,4-dimethoxy-phenyl)-6-oxo-1,6-dihydro-pyrimidine-5-carbonitrile]	< 5	< 1
COc1ccc(-c2nc(SCc3cccc(NCc4ccc(Cl)c(Cl)c4)c3)[nH]c(=O)c2C#N)cc1-c1cccs1 [Example 1c]	< 5	< 1
COc1cccc(-c2nc(SCc3cccc(NCc4cccc(Oc5ccc(Cl)cc5)c4)c3)[nH]c(=O)c2C#N)c1 [Example 1cc]	< 1	< 1
COc1cccc(-c2nc(SCc3cccc(NCc4ccccc4)c3)[nH]c(=O)c2C#N)c1 [Example 1d]	< 5	< 5
COc1cccc(-c2nc(SCc3cccc(NCc4ccc5cccc(O)c5n4)c3)[nH]c(=O)c2C#N)c1 [Example 1v]	< 1	< 1
N#Cc1c(-c2ccccc2-c2cc3ccccc3s2)nc(SCc2cccc(NC(=O)c3ccc(Cl)c(Cl)c3)c2)[nH]c1=O [Example 2bb, N-{3-[4-(2-Benzo[b]thiophen-2-yl-phenyl)-5-cyano-6-oxo-1,6-dihydro-pyrimidin-2-ylsulfanylmethyl]-phenyl}-3,4-dichloro-benzamide]	< 5	< 1
N#Cc1c(-c2ccccc2OC(F)(F)F)nc(SCc2cccc(NC(=O)c3ccc(Cl)c(Cl)c3)c2)[nH]c1=O [Example 2dd, 3,4-Dichloro-N-{3-[5-cyano-6-oxo-4-(2-trifluoromethoxy-phenyl)-1,6-dihydro-pyrimidin-2-ylsulfanylmethyl]-phenyl}-benzamide]	< 5	< 5
N#Cc1c(-c2ccccc2C(F)(F)F)nc(SCc2cccc(NC(=O)c3ccc(Cl)c(Cl)c3)c2)[nH]c1=O [Example 2ee, 3,4-Dichloro-N-{3-[5-cyano-6-oxo-4-(2-trifluoromethyl-phenyl)-1,6-dihydro-pyrimidin-2-ylsulfanylmethyl]-phenyl}-benzamide]	< 10	< 1
N#Cc1c(-c2ccc(C(F)(F)F)cc2)nc(SCc2cccc(NC(=O)c3ccc(Cl)c(Cl)c3)c2)[nH]c1=O [Example 2ff, 3,4-Dichloro-N-{3-[5-cyano-6-oxo-4-(4-trifluoromethyl-phenyl)-1,6-dihydro-pyrimidin-2-ylsulfanylmethyl]-phenyl}-benzamide]	< 5	< 5
N#Cc1c(-c2cccc(C(F)(F)F)c2)nc(SCc2cccc(NC(=O)c3ccc(Cl)c(Cl)c3)c2)[nH]c1=O [Example 2gg, 3,4-Dichloro-N-{3-[5-cyano-6-oxo-4-(3-trifluoromethyl-phenyl)-1,6-dihydro-pyrimidin-2-ylsulfanylmethyl]-phenyl}-benzamide]	> 40	< 5
COc1cccc(-c2nc(SCc3cccc(NC(=O)c4ccc(Cl)c(Cl)c4)c3)[nH]c(=O)c2C#N)c1 [Example 2h]	< 5	< 5
N#Cc1c(-c2c[nH]c3ccc(Br)cc23)nc(SCc2cccc(NC(=O)c3ccc(Cl)c(Cl)c3)c2)[nH]c1=O [Example 2mm, N-{3-[4-(5-Bromo-1H-indol-3-yl)-5-cyano-6-oxo-1,6-dihydro-pyrimidin-2-ylsulfanylmethyl]-phenyl}-3,4-dichloro-benzamide]		< 1
N#Cc1c(-c2cccc(Br)c2)nc(SCc2cccc(NC(=O)c3ccc(Cl)c(Cl)c3)c2)[nH]c1=O [Example 2nn, N-{3-[4-(3-Bromo-phenyl)-5-cyano-6-oxo-1,6-dihydro-pyrimidin-2-ylsulfanylmethyl]-phenyl}-3,4-dichloro-benzamide]		< 1
COc1cccc(-c2nc(SCc3cccc(NC(=O)c4ccc(F)c(F)c4)c3)[nH]c(=O)c2C#N)c1 [Example 2oo, N-{3-[5-Cyano-4-(3-methoxy-phenyl)-6-oxo-1,6-dihydro-pyrimidin-2-ylsulfanylmethyl]-phenyl}-3,4-difluoro-benzamide]		< 5
COc1cccc(-c2nc(SCc3cccc(NC(=O)Nc4ccc(Cl)c(Cl)c4)c3)[nH]c(=O)c2C#N)c1 [Example 3a, 1-{3-[5-Cyano-4-(3-methoxy-phenyl)-6-oxo-1,6-dihydro-pyrimidin-2-ylsulfanylmethyl]-phenyl}-3-(3,4-dichloro-phenyl)-urea]		< 1

SMILES	IC50 (murine MEKK2 (mMEKK2) [1]) [µM]	IC50 (murine MEKK2 (mMEKK2) [2]) [µM]
COc1cccc(-c2nc(SCc3cccc(NCc4cccc(OCCN(C)C)c4)c3)[nH]c(=O)c2C#N)c1 [Example 4a]		> 40
CN(CCOc1ccc(-c2nc(SCc3cccc(NC(=O)c4ccc(Cl)c(Cl)c4)c3)[nH]c(=O)c2C#N)cc1)c1ccncc1 [Example 4aa]		20
COc1cccc(-c2nc(SCc3cccc(NCc4cnc(O)nc4O)c3)[nH]c(=O)c2C#N)c1 [Example 4d]		> 40
CCc1nc(C)c(-c2nc(SCc3cccc(NC(=O)c4ccc(Cl)c(Cl)c4)c3)[nH]c(=O)c2C#N)[nH]1 [Example 4dd]		> 40
COc1cccc(-c2nc(SCCCn3cnc4c(NC(=O)c5ccccc5)ncnc43)[nH]c(=O)c2C#N)c1 [Example 4ee]		> 40
COc1cccc(-c2nc(SCCCn3cnc(NC(=O)c4ccc(Cl)c(Cl)c4)n3)[nH]c(=O)c2C#N)c1 [Example 4ff]		> 40
N#Cc1c(-c2cccc(C(=O)O)c2)nc(SCc2cccc(NC(=O)c3ccc(Cl)c(Cl)c3)c2)[nH]c1=O [Example 4m]		< 20
N#Cc1c(-c2cccc(S(=O)(=O)NCc3ccccc3)c2)nc(SCc2cccc(NC(=O)c3ccc(Cl)c(Cl)c3)c2)[nH]c1=O [Example 4p]		< 5
N#Cc1c(-c2cccc(-n3cccc3)c2)nc(SCc2cccc(NC(=O)c3ccc(Cl)c(Cl)c3)c2)[nH]c1=O [Example 4q]		< 1
N#Cc1c(-c2ccc(-n3ccnc3)cc2)nc(SCc2cccc(NC(=O)c3ccc(Cl)c(Cl)c3)c2)[nH]c1=O [Example 4r]		< 5
N#Cc1c(-c2ccc(-n3cccc3)cc2)nc(SCc2cccc(NC(=O)c3ccc(Cl)c(Cl)c3)c2)[nH]c1=O [Example 4s]		< 1
N#Cc1c(-c2ccc(-n3cccn3)cc2)nc(SCc2cccc(NC(=O)c3ccc(Cl)c(Cl)c3)c2)[nH]c1=O [Example 4t]		< 20
N#Cc1c(-c2cccc(-n3ccnc3)c2)nc(SCc2cccc(NC(=O)c3ccc(Cl)c(Cl)c3)c2)[nH]c1=O [Example 4u]		< 10
N#Cc1c(-c2cccc(N3CCCC3)c2)nc(SCc2cccc(NC(=O)c3ccc(Cl)c(Cl)c3)c2)[nH]c1=O [Example 4w]		< 1
CCOC(=O)C1CCN(c2ccccc2-c2nc(SCc3cccc(NC(=O)c4ccc(Cl)c(Cl)c4)c3)[nH]c(=O)c2C#N)CC1 [Example 4x]		> 40
CCN(CC)CCOc1ccc(-c2nc(SCc3cccc(NC(=O)c4ccc(Cl)c(Cl)c4)c3)[nH]c(=O)c2C#N)cc1 [Example 4z]		> 40
